Test results from publication PMC10947176, “The Antimicrobial Properties of Pd^II− and Ru^II−pyta Complexes” (Chembiochem, 2023).
Like-named read-outs stand apart in the source and are kept apart here.

Tests used:
Assay in all cases: MIC against extended fungal panel
[1] = system: Candida tropicalis ATCC 750; format: cell-based
Protocol: (§1) The extended panel contained four Candida and two Cryptococcus strains (Table 1).
(§2) Antifungal data collection: Fungi strains were cultured for 3 days on yeast extract‐peptone dextrose (YPD) agar at 30 °C. A yeast suspension of 1×10^6 to 5×10^6 CFU mL^−1 (as determined by OD530) was prepared from five colonies. The suspension was diluted in supplemented YNB and added to each well of the compound‐containing plates giving a final cell density of fungi suspension of 2.5×10^3 CFU mL^−1 and 2 % DMSO. All plates were covered and incubated at 35 °C for 36 h without shaking.
(§3) Two biological replicates x2 technical replicates were conducted on separate days (final n=4).
(§4) Growth inhibition of C. albicans, C. tropicalis and C. glabrata was determined by measuring absorbance at 630 nm (OD630), while the growth inhibition of Cryptococcus spp. and C. auris was determined by measuring the difference in absorbance between 600 and 570 nm (OD600‐570), after the addition of resazurin (0.01 % final concentration) and incubation at 35 °C for 2 h. The absorbance was measured using a Biotek Multiflo Synergy HTX plate reader.
(§5) The percentage of growth inhibition was calculated for each well, using the negative control (media only) and positive control (fungi without inhibitors) on the same plate. […] In addition, the maximal percentage of growth inhibition is reported as D Max, indicating any compounds with marginal activity.

C. glabrata ATCC 90030 = format: cell-based, Candida glabrata
Protocol: as §1, §2, §3, §4, §5

C. albicans ATCC 90028 = format: cell-based, Candida albicans; settings: for MIC: Candida albicans, ATCC90028
Protocol: as §1, §2, §3, §4, §5

C. auris CBS10913 = format: cell-based, Candida auris
Protocol: as §1, §2, §3, §4, §5

[2] = system: C. neoformans ATCC 208821; format: cell-based, Cryptococcus neoformans
Protocol: as §1, §2, §3, §4, §5

[3] = system: C. deuterogattii ATCC 32609; format: cell-based, Cryptococcus deuterogattii
Protocol: as §1, §2, §3, §4, §5

Compound: OC(Cn1cncn1)(Cn1cncn1)c1ccc(F)cc1F [fluconazole]
- MIC ([1]; Candida tropicalis, ATCC750, Table S3, Table 1 values in µM): 13.1 µM
- MIC ([1]; Candida tropicalis, ATCC750, range of MICs, n=4): 4 µg/mL
- MIC ([1]; second Table S4, free ligands): 13.1 µM
- MIC (C. glabrata ATCC 90030; Nakaseomyces glabratus, ATCC90030, Table S3, Table 1 values in µM, read-out: MIC, Candida glabrata ATCC 90030): > 104 µM
- MIC (C. glabrata ATCC 90030; Nakaseomyces glabratus, ATCC90030, range of MICs, n=4, read-out: MIC, C. glabrata ATCC 90030): > 32 µg/mL
- MIC (C. glabrata ATCC 90030; second Table S4, free ligands, read-out: MIC, Candida glabrata ATCC 90030): > 104 µM
- MIC (C. albicans ATCC 90028; Table S3, Table 1 values in µM, read-out: MIC, Candida albicans ATCC 90028): 0.816 to 1.63 µM
- MIC (C. albicans ATCC 90028; range of MICs, n=4, read-out: MIC, C. albicans ATCC 90028): 0.25 to 0.5 µg/mL
- MIC, Candida albicans ATCC 90028 (C. albicans ATCC 90028; second Table S4, free ligands): 0.816 to 1.63 µM
- MIC (C. auris CBS10913; Candidozyma auris, CBS10913, Table S3, Table 1 values in µM, read-out: MIC, Candida auris CBS10913): > 104 µM
- MIC (C. auris CBS10913; Candidozyma auris, CBS10913, range of MICs, n=4, read-out: MIC, C. auris CBS10913): ≥ 32 µg/mL
- MIC (C. auris CBS10913; second Table S4, free ligands, read-out: MIC, Candida auris CBS10913): > 104 µM
- MIC ([2]; Cryptococcus neoformans, ATCC208821, Table S3, Table 1 values in µM, read-out: MIC, Cryptococcus neoformans ATCC 208821): 26.1 µM
- MIC ([2]; Cryptococcus neoformans, ATCC208821, range of MICs, n=4, read-out: MIC, C. neoformans ATCC 208821): 8 µg/mL
- MIC ([2]; second Table S4, free ligands, read-out: MIC, Cryptococcus neoformans ATCC 208821): 26.1 µM
- MIC ([3]; Cryptococcus deuterogattii, ATCC32609, Table S3, Table 1 values in µM, read-out: MIC, Cryptococcus deuterogattii ATCC 32609): > 104 µM
- MIC ([3]; Cryptococcus deuterogattii, ATCC32609, range of MICs, n=4, read-out: MIC, C. deuterogattii ATCC 32609): > 32 µg/mL
- MIC ([3]; second Table S4, free ligands, read-out: MIC, Cryptococcus deuterogattii ATCC 32609): > 104 µM
